In PubChem BioAssay (NCI):
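Test compounds were applied to cells in 96-well plates for 48 hours at 5 doses. At the TGI there is no net growth.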

Tests used:
Assay in all cases: NCI-60 cell line screen, 48 h
HCC-2998 colon = tested on: HCC-2998 colon
EKVX NSCLC = tested on: EKVX NSCLC
SK-OV-3 ovarian = tested on: SK-OV-3 ovarian
RXF 393 renal = tested on: RXF 393 renal
MDA-MB-231 breast = tested on: MDA-MB-231 breast
ACHN renal = tested on: ACHN renal
NCI-H23 lung = tested on: NCI-H23 lung
A498 renal = tested on: A498 renal
IGROV1 ovarian = tested on: IGROV1 ovarian
SK-MEL-2 melanoma = tested on: SK-MEL-2 melanoma
U251 CNS = tested on: U251 CNS
MOLT-4 leukemia = tested on: MOLT-4 leukemia
HOP-62 NSCLC = tested on: HOP-62 NSCLC

| Structure (SMILES) | TGI (HCC-2998 colon) [µM] | TGI (EKVX NSCLC) [µM] | TGI (SK-OV-3 ovarian) [µM] | TGI (RXF 393 renal) [µM] | TGI (MDA-MB-231 breast) [µM] | TGI (ACHN renal) [µM] | TGI (NCI-H23 lung) [µM] | TGI (A498 renal) [µM] | TGI (IGROV1 ovarian) [µM] | TGI (SK-MEL-2 melanoma) [µM] | TGI (U251 CNS) [µM] | TGI (MOLT-4 leukemia) [µM] | TGI (HOP-62 NSCLC) [µM] |
| --- | --- | --- | --- | --- | --- | --- | --- | --- | --- | --- | --- | --- | --- |
| CC(C)CC(N)C(=O)Nc1ccc2ccccc2c1 (stereo not drawn) | > 100 | > 100 | > 100 | > 100 | > 100 | > 100 | > 100 | > 100 | > 100 | > 100 | > 100 | > 100 | > 100 |
| COc1cccc(/C=C2\S/C(=N/Nc3nc(C)c(C)s3)NC2=O)c1O | > 100 | > 100 | > 100 | > 100 | > 100 | > 100 | > 100 | > 100 | > 100 | > 100 | > 100 | > 100 | > 100 |
| CN(C)N1C(=O)S/C(=C\c2ccc([N+](=O)[O-])cc2)C1=O | > 100 | > 100 | > 100 | > 100 | > 100 | > 100 | > 100 | > 100 | > 100 | > 100 | > 100 | > 100 | > 100 |
| COc1ccc2c(c1)/C(=C\c1c(Cl)[nH]c3ccccc13)C(=O)N2 | 13.3 | 18.5 | 9.87 | 13.4 | 26.5 | 20.8 | 25 | 23.7 | 9.78 | 16.1 | 13.2 | 41 | 17.9 |
| C=C(C(=O)OC)[C@@H]1C[C@@H](OC(C)=O)C2=C[C@H](C[C@@]3(C)O[C@@H]3C3=CC(C)=C(O3)[C@H]1OC(C)=O)OC2=O | 43 | 38.9 | > 100 | 44 | 44.1 | 49.4 | 35.5 | 33.8 | 57.1 | > 100 | 71.1 | 6.72 | 67.2 |
| COc1ccc(-c2c3c(n(C4OC(CO)C(O)C(O)C4O)c(=S)c2C#N)CCCC3)cc1 (stereo not drawn) | > 100 | > 100 | > 100 | > 100 | > 100 | > 100 | > 100 | > 100 | > 100 | > 100 | – | > 100 | > 100 |
| CC(C)=CCC[C@@H](C)C1=C(O)C(Nc2ccccc2Cl)=C(C)C(=O)C1=O | > 56.6 | > 75 | > 75 | > 50.8 | > 70.8 | > 46.6 | 55.1 | > 56.9 | 46.5 | 46.7 | > 75 | > 57.5 | > 64.2 |
| CCCCc1ccc(Nc2nc(OC)c3ncn(C4CC(O)C(CO)O4)c3n2)cc1 (stereo not drawn) | 20.4 | 6.08 | 27.8 | 31.7 | 38 | 31.2 | 35.3 | 35.3 | 27.2 | 47.5 | 40 | 36.7 | 94.7 |
